Test results reported in patent US20230011571A1, “SMALL MOLECULE FURIN INHIBITORS FOR TREATING INFECTIOUS DISEASES” (BP Asset V, Inc., priority 2019, published 2023).
Values after ≈ are worked out from the molar mass of the structure shown. Where two headings read alike, the source gives them in different places.

Columns and labels:
Format in all cases: cell-based
[1] = test system: Venezuelan equine encephalitis (TC-83; Vero 76); assay: cells
dengue virus (DENV) = assay: microbe, parasite or virus in culture; conditions: Dengue virus, Vero, 120 h, read-out: Percent viral inhibition DENY
Measles (CC; Vero 76) = assay: In vitro viral inhibition, Measles; conditions: Measles morbillivirus, strain CC, Vero 76 cells
Protocol: (§1) In vitro studies of the antiviral activity were also carried out for several viruses using Example 369.

[2] = test system: Western equine encephalitis (California; Vero 76); assay: cells
[3] = test system: Respiratory syncytial virus (A2; RD); assay: In vitro viral inhibition, Respiratory syncytial virus; conditions: human respiratory syncytial virus
Protocol: as §1

[4] = test system: Dengue Virus 2 (New Guinea C; Huh7); assay: In vitro viral inhibition, Dengue Virus 2
[5] = test system: Chikungunya (S27; Vero 76); assay: In vitro viral inhibition, Chikungunya; conditions: Chikungunya virus
[6] = test system: Powassan virus (LB; BHK-21); assay: microbe, parasite or virus in culture
[7] = test system: Usutu virus (TC-508; Vero 76); assay: In vitro viral inhibition, Usutu virus; conditions: strain TC-508, Vero 76 cells
Protocol: as §1

[8] = test system: Chikungunya virus (CHIKV); assay: microbe, parasite or virus in culture; conditions: Chikungunya virus, Vero, 48 h, read-out: Percent viral inhibition CHKV
[9] = test system: Japanese encephalitis virus (SA-14; Vero 76); assay: In vitro viral inhibition, Japanese encephalitis virus
[10] = test system: Mayaro virus (BE AR 505411; Vero 76); assay: In vitro viral inhibition, Mayaro virus; conditions: strain BE AR 505411, Vero 76 cells
Protocol: as §1

[11] = test system: Yellow Fever (YFV 17D; Huh7); assay: microbe, parasite or virus in culture
Marburg virus (MARV) = assay: organism not typed; conditions: Vero, 72 h, read-out: Percent viral inhibition MARV
[12] = test system: Eastern equine encephalitis (FL39-939; Vero 76); assay: cells
[13] = Vero 76, read-out: EC50 (ug/mL) (Neutral Red (NR) Assay)
[14] = Vero 76, read-out: EC50 (ug/mL) (VIS Drug Assay)
[15] = Neutral Red assay, read-out: EC50 (ug/mL) (Neutral Red (NR) Assay)
[16] = VIS assay, read-out: EC50 (ug/mL) (VIS Drug Assay)
[17] = Huh-7, read-out: EC50 (ug/mL) (Neutral Red (NR) Assay)
[18] = Huh-7, read-out: EC50 (ug/mL) (VIS Drug Assay)

Question: Which EC50 [1, 13] does the source give for `CC(=O)NCC1CCN(Cc2cc(Oc3cnc(N4CCN(CCC(C)C(=O)O)CC4)nc3)nc(-c3cc(Cl)cc(Cl)c3)c2)CC1` (stereo not drawn) [Example 369, 4-(4-(5-((4-((4-(acetamidomethyl)piperidin-1-yl)methyl)-6-(3,5-dichlorophenyl)pyridin-2-yl)oxy)pyrimidin-2-yl)piperazin-1-yl)-2-methylbutanoic acid] here?
Answer: The EC50 was 0.77 µg/mL (≈ 1.15 µM).

Question: What about the EC50 [1, 14] of the same compound?
Answer: Its EC50 is 0.55 µg/mL (≈ 0.82 µM).

Question: What about the inhibition at 1 µM (dengue virus (DENV)) of the same compound?
Answer: The inhibition at 1 µM was 33.3%.

Question: And the EC50 (Measles (CC; Vero 76); [15])?
Answer: Its EC50 is under 0.1 µg/mL.

Question: And the EC50 (Measles (CC; Vero 76); [16])?
Answer: Its EC50 is under 0.1 µg/mL.

Question: And the EC50 [2, 13]?
Answer: The EC50 was under 0.1 µg/mL.

Question: And the EC50 [2, 14]?
Answer: Its EC50 is under 0.1 µg/mL.

Question: And the EC50 ([3]; read-out: EC50 (ug/mL) (Neutral Red (NR) Assay))?
Answer: The EC50 was 0.3 µg/mL (≈ 0.447 µM).

Question: And the EC50 ([3]; read-out: EC50 (ug/mL) (VIS Drug Assay))?
Answer: The EC50 was 28 µg/mL (≈ 41.8 µM).

Question: And the EC50 [4, 17]?
Answer: The EC50 was under 0.1 µg/mL.

Question: What about the EC50 [4, 18] of the same compound?
Answer: Its EC50 is under 0.1 µg/mL.

Question: What about the EC50 [5, 13] of the same compound?
Answer: The EC50 was 0.18 µg/mL (≈ 0.268 µM).

Question: And the EC50 [5, 14]?
Answer: The EC50 was 0.12 µg/mL (≈ 0.179 µM).

Question: What about the EC50 ([6]; BHK-21, read-out: EC50 (ug/mL) (Neutral Red (NR) Assay)) of the same compound?
Answer: The EC50 was under 0.1 µg/mL.

Question: And the EC50 ([6]; BHK-21, read-out: EC50 (ug/mL) (VIS Drug Assay))?
Answer: The EC50 was under 0.1 µg/mL.

Question: What about the EC50 [7, 15] of the same compound?
Answer: The EC50 was 5.8 µg/mL (≈ 8.65 µM).

Question: What about the EC50 [7, 16] of the same compound?
Answer: Its EC50 is 2.7 µg/mL (≈ 4.03 µM).

Question: And the inhibition at 1 µM [8]?
Answer: Its inhibition at 1 µM is 32.9%.

Question: What about the EC50 [9, 13] of the same compound?
Answer: The EC50 was 3 µg/mL (≈ 4.47 µM).

Question: And the EC50 [9, 14]?
Answer: Its EC50 is 0.32 µg/mL (≈ 0.477 µM).

Question: And the EC50 [10, 15]?
Answer: Its EC50 is 0.28 µg/mL (≈ 0.418 µM).

Question: And the EC50 [10, 16]?
Answer: The EC50 was 0.32 µg/mL (≈ 0.477 µM).

Question: And the EC50 [11, 17]?
Answer: The EC50 was 0.18 µg/mL (≈ 0.268 µM).

Question: And the EC50 [11, 18]?
Answer: Its EC50 is 0.18 µg/mL (≈ 0.268 µM).

Question: And the inhibition at 1 µM (Marburg virus (MARV))?
Answer: Its inhibition at 1 µM is 47.1%.

Question: What about the EC50 [12, 13] of the same compound?
Answer: Its EC50 is under 0.1 µg/mL.

Question: What about the EC50 [12, 14] of the same compound?
Answer: Its EC50 is under 0.1 µg/mL.

Question: Which results are given for `COC(=O)CCN1CCN(c2ccc(Oc3cc(CN4CCC(CNC(C)=O)CC4)cc(-c4cc(Cl)cc(Cl)c4)n3)cn2)CC1` [Example 385, methyl3-(4-(5-((4-((4-(acetamidomethyl)piperidin-1-yl)methyl)-6-(3,5-dichlorophenyl)pyridin-2-yl)oxy)pyridin-2-yl)piperazin-1-yl)propanoate]?
Answer: inhibition at 1 µM (dengue virus (DENV)): 48.5%; inhibition at 1 µM [8]: 14.9%; inhibition at 1 µM (Marburg virus (MARV)): 56.7%

Question: What does the source list for `O=C(O)CC1CCN(Cc2cc(Oc3cnc(N4CCN(Cc5cnn[nH]5)CC4)nc3)nc(-c3cc(Cl)cc(Cl)c3)c2)CC1` [Example 387, 2-(1-((2-((2-(4-((1H-l,2,3-triazol-5-yl)methyl)piperazin-1-yl)pyrimidin-5-yl)oxy)-6-(3,5-dichlorophenyl)pyridin-4-yl)methyl)piperidin-4-yl)acetic acid]?
Answer: inhibition at 1 µM (dengue virus (DENV)): 39.9%; inhibition at 1 µM [8]: 36.3%; inhibition at 1 µM (Marburg virus (MARV)): 41.4%

Question: How did the inhibition at 1 µM (dengue virus (DENV)) turn out when `CC(=O)NCC1CCN(Cc2cc(Oc3cnc(N4CCN(CCC(N)=O)CC4)cn3)nc(-c3cc(Cl)cc(Cl)c3)c2)CC1` [Example 391] was run?
Answer: Its inhibition at 1 µM is 51.4%.

Question: And the inhibition at 1 µM [8]?
Answer: The inhibition at 1 µM was 14%.

Question: What about the inhibition at 1 µM (Marburg virus (MARV)) of the same compound?
Answer: Its inhibition at 1 µM is 35.4%.

Question: With `CCC(=O)NCC1CCN(Cc2cc(Oc3cnc(N4CCN(CCC(C)C(=O)O)CC4)cn3)nc(-c3cc(Cl)cc(Cl)c3)c2)CC1` (stereo not drawn) [Example 392, 4-(4-(5-((6-(3,5-dichlorophenyl)-4-((4-(propionamidomethyl)piperidin-1-yl)methyl)pyridin-2-yl)oxy)pyrazin-2-yl)piperazin-1-yl)-2-methylbutanoic acid] as the compound, how does the inhibition at 1 µM (dengue virus (DENV)) read?
Answer: The inhibition at 1 µM was 34.9%.

Question: What about the inhibition at 1 µM [8] of the same compound?
Answer: Its inhibition at 1 µM is 15.8%.

Question: What about the inhibition at 1 µM (Marburg virus (MARV)) of the same compound?
Answer: The inhibition at 1 µM was 60.6%.

Question: With `COC(=O)NCC1CCN(Cc2cc(Oc3cnc(N4CCN(C)CC4)cn3)nc(-c3cc(Cl)cc(Cl)c3)c2)CC1` [Example 395, methyl((1-((2-(3,5-dichlorophenyl)-6-((5-(4-methylpiperazin-1-yl)pyrazin-2-yl)oxy)pyridin-4-yl)methyl)piperidin-4-yl)methyl)carbamate] as the compound, how does the inhibition at 1 µM (dengue virus (DENV)) read?
Answer: The inhibition at 1 µM was 88.2%.

Question: And the inhibition at 1 µM [8]?
Answer: Its inhibition at 1 µM is 0%.

Question: And the inhibition at 1 µM (Marburg virus (MARV))?
Answer: The inhibition at 1 µM was 37.2%.

Question: `CC(=O)NCC1CCN(Cc2cc(Oc3cnc(N4CCN(CCC(C)C(=O)O)CC4)cn3)nc(-c3cc(Cl)cc(Cl)c3)c2)CC1` (stereo not drawn) [Example 396, 4-(4-(5-((4-((4-(acetamidomethyl)piperidin-1-yl)methyl)-6-(3,5-dichlorophenyl)pyridin-2-yl)oxy)pyrazin-2-yl)piperazin-1-yl)-2-methylbutanoic acid] was tested. Which inhibition at 1 µM (dengue virus (DENV)) did it give?
Answer: Its inhibition at 1 µM is 46.3%.

Question: What about the inhibition at 1 µM [8] of the same compound?
Answer: Its inhibition at 1 µM is 21.5%.

Question: And the inhibition at 1 µM (Marburg virus (MARV))?
Answer: Its inhibition at 1 µM is 26.7%.

Question: `CN1CCCN(c2ncc(Oc3cc(CN4CC[C@@H]5[C@H](CC4)[C@H]5C(=O)O)cc(-c4cc(Cl)cc(Cl)c4)n3)cn2)CC1` [Example 397, (1R,7S,8r)-4-((2-(3,5-dichlorophenyl)-6-((2-(4-methyl-1,4-diazepan-1-yl)pyrimidin-5-yl)oxy)pyridin-4-yl)methyl)-4-azabicyclo[5.1.0]octane-8-carboxylic acid] was tested. Which inhibition at 1 µM (dengue virus (DENV)) did it give?
Answer: The inhibition at 1 µM was 38.7%.

Question: And the inhibition at 1 µM [8]?
Answer: Its inhibition at 1 µM is 25.1%.

Question: What about the inhibition at 1 µM (Marburg virus (MARV)) of the same compound?
Answer: The inhibition at 1 µM was 46.2%.
